Patent publication US6248754A, “Substituted isoquinoline derivatives and their use as anticonvulsants” (SmithKline Beecham, p.l.c., priority 1997, dated 2001)

Tests used:
[1] = target: novel receptor obtainable from rat forebrain tissue; test: Radioligand binding assay, displacement of [3H]-Compound A; settings: competition with 20 nM [3H]-Compound A, room temperature 1 hour
Description: The affinity of test compounds to the novel receptor site is assessed as follows. Whole forebrain tissue is obtained from rats. The tissue is first homogenised in buffer (usually 50 mM Tris/HCl, pH 7.4). The homogenised tissue is washed by centrifugation and resuspension in the same buffer, then stored at -70° C. until used. To carry out the radioligand binding assay, aliquots of tissue prepared as above (usually at a concentration of 1-2 mg protein/ml) are mixed with aliquots of [3H]-Compound A dissolved in buffer. The final concentration of [3H]-Compound A in the mixture is usually 20 nM. The mixture is incubated at room temperature for 1 hour. [3H]-Compound A bound to the tissue is then separated from unbound [3H]-Compound A by filtration through Whatman GF/B glass fibre filters. The filters are then washed rapidly with ice-cold buffer. The amount of radioactivity bound to the tissue trapped on the filters is measured by addition of liquid scintillation cocktail to the filters followed by counting in a liquid scintillation counter. In order to determine the amount of "specific" binding of [3H]-Compound A, parallel assays are carried out as above in which [3H]-Compound A and tissue are incubated together in the presence of unlabelled Compound A (usually 3 μM). The amount of binding of [3H]-Compound A remaining in the presence of this unlabelled compound is defined as "non-specific" binding. This amount is subtracted from the total amount of [3H]-Compound A binding (i.e. that present in the absence of unlabelled compound) to obtain the amount of "specific" binding of [3H]-Compound A to the novel site. The affinity of the binding of test compounds to the novel site can be estimated by incubating together [3H]-Compound A and tissue in the presence of a range of concentrations of the compound to be tested. The decrease in the level of specific [3H]-Compound A binding as a result of competition by increasing concentrations of the compound under test is plotted graphically, and non-linear regression analysis of the resultant curve is used to provide an estimate of compound affinity in terms of pKi value.

[2] = system: maximal (tonic hindlimb extension) electroshock seizures in male rats; test: Maximal electroshock seizure (MEST) threshold test, rat model; assay type: in vivo; settings: 2 mg/kg p.o. at 2 h, suspended in 1% methyl cellulose, statistically significant
Description: The maximal electroshock seizure (MEST) threshold test in rodents is particularly sensitive for detecting potential anticonvulsant properties^1. In this model, anticonvulsant agents elevate the threshold to electrically-induced seizures whilst proconvulsants lower the seizure threshold.
The threshold for maximal (tonic hindlimb extension) electroshock seizures in male rats (Sprague Dawley, 80-150 g, 6 weeks old) was determined by a Hugo Sachs Electronik stimulator which delivered a constant current (0.3 sec duration; from 1-300 mA in steps of 5-20 mA). The procedure is similar to that outlined above for mouse and full details are as published by Upton et al,.^4
The percentage increase or decrease in CC50 for each group compared to the control is calculated.
Drugs are suspended in 1% methyl cellulose.

SMILES	pKi [1]	increase in CC50 compared to control [2] [%]
CCOc1ccc(C(=O)Nc2ccc3c(c2Cl)CNCC3)cc1Br [Example 2, N-(8-Chloro-1,2,3,4-tetrahydroisoquinolin-7-yl)-3-bromo-4-ethoxybenzamide]	greater than 7	120
CCOc1ccc(C(=O)Nc2ccc3c(c2Cl)CN(C)CC3)cc1Br [Example 3, N-(8-chloro-2-methyl-1,2,3,4-tetrahydroisoquinolin-7-yl)-3-bromo-4-ethoxybenzamide]	greater than 7	160
COc1ccc(C(=O)Nc2ccc3c(c2Cl)CNCC3)cc1C(F)(F)F [Example 5]	greater than 7	320
COc1ccc(C(=O)Nc2ccc3c(c2Cl)CN(C)CC3)cc1C(F)(F)F [Example 6, N-(8-Chloro-2-methyl-1,2,3,4-tetrahydroisoquinolin-7-yl)-4-methoxy-3-trifluoromethylbenzamide]		260
COc1ccc(C(=O)Nc2ccc3c(c2Br)CNCC3)cc1C(F)(F)F [Example 8, N-(8-Bromo-1,2,3,4-tetrahydroisoquinolin-7-yl)-4-methoxy-3-trifluoromethylbenzamide]		400
COc1ccc(C(=O)Nc2ccc3c(c2Br)CN(C)CC3)cc1C(F)(F)F [Example 9, N-(8-Bromo-2-methyl-1,2,3,4-tetrahydroisoquinolin-7-yl)-4-methoxy-3-trifluoromethylbenzamide]		340
CCc1c(NC(=O)c2ccc(OC)c(C(F)(F)F)c2)ccc2c1CNCC2 [Example 14, N-(8-Ethyl-1,2,3,4-tetrahydroisoquinolin-7-yl)-4-methoxy-3-trifluoromethylbenzamide]	greater than 7	
CCc1c(NC(=O)c2ccc(OC)c(C(F)(F)F)c2)ccc2c1CN(C)CC2 [Example 15, N-(8-Ethyl-2-methyl-1,2,3,4-tetrahydroisoquinolin-7-yl)-4-methoxy-3-trifluoromethylbenzamide]	greater than 7	
COc1ccc(C(=O)Nc2ccc3c(c2C=Cc2ccccc2)CNCC3)cc1C(F)(F)F [Example 18, N-(8-Styryl-1,2,3,4-tetrahydroisoquinolin-7-yl)-4-methoxy-3-trifluoromethylbenzamide]	greater than 7	
COc1ccc(C(=O)Nc2ccc3c(c2C=Cc2ccccc2)CN(C)CC3)cc1C(F)(F)F.Cl [Example 19, N-(8-Styryl-2-methyl-1,2,3,4-tetrahydroisoquinolin-7-yl)-4-methoxy-3-trifluoromethylbenzamide hydrochloride]	greater than 7	
